# Laboratory results: patent US6734203B2, “Fused imidazolium derivatives” (priority 2000, dated 2004)
# Assay: Mouse single administration toxicity test
# Assay type: in vivo, Balb/C mice
# Conditions: 3 mg/kg single intravenous administration, observation period of 2 weeks
# Method: (Test methods) The compounds of the invention were administered by single intravenous administration to Balb/C mice, and the presence of mortal case during the observation period of 2 weeks was evaluated.
row,Structure (SMILES),presence of mortal case
1,"COCCNC1=C(N(Cc2ccncc2)C(C)=O)C(=O)c2ccccc2C1=O [Example 4, N-[3-(2-methoxyethyl)amino-1,4-dihydro-1,4-dioxo-2-naphthalenyl]-N-(4-pyridylmethyl)acetamide]",Mortal case was not found
2,"COCC[n+]1c2c(n(Cc3ccc(Cl)nc3)c1C)C(=O)c1ccccc1C2=O.[Cl-] [Example 9, 1-[(6-chloro-3-pyridyl)methyl]-3-(2-methoxyethyl)-2-methyl-4,9-dioxo-4,9-dihydro-1H-naphtho[2,3-d]imidazol-3-ium chloride]",Mortal case was not found
3,"COCCN(C(C)=O)C1=C(NCc2cccnc2)C(=O)c2ccccc2C1=O [Example 35, N-(2-methoxyethyl)-N-[3-(3-pyridylmethyl)amino-1,4-dihydro-1,4-dioxo-2-naphthalenyl]acetamide]",Mortal case was not found
4,"COCCN(C(C)=O)C1=C(NCc2ccncc2)C(=O)c2ccccc2C1=O [Example 37, N-(2-methoxyethyl)-N-[3-(4-pyridylmethyl)amino-1,4-dihydro-1,4-dioxo-2-naphthalenyl]acetamide]",Mortal case was not found
5,"COCCn1c2c([n+](CCOC)c1C)C(=O)c1ccccc1C2=O [Example 148, 1,3-bis(2-methoxyethyl)-2-methyl-4,9-dioxo-4,9-dihydro-1H-naphtho[2,3-d]imidazol-3-ium]",Mortal case was not found
6,"COCC[n+]1c2c(n(Cc3cnccn3)c1C)C(=O)c1ccccc1C2=O [Example 154, 3-(2-methoxyethyl)-2-methyl-4,9-dioxo-1-(2-pyrazinylmethyl)-4,9-dihydro-1H-naphtho[2,3-d]imidazol-3-ium]",Mortal case was not found
7,"COCCn1c2c([n+](Cc3cccnc3)c1C)C(=O)c1ccccc1C2=O [Example 180, 1-(2-methoxyethyl)-2-methyl-4,9-dioxo-3-(3-pyridylmethyl)-4,9-dihydro-1H-naphtho[2,3-d]imidazol-3-ium]",Mortal case was not found
8,"COCCn1c2c([n+](Cc3ccncc3)c1C)C(=O)c1ccccc1C2=O.Cl.[Cl-] [Example 182, 1-(2-methoxyethyl)-2-methyl-3-(4-pyridylmethyl)-4,9-dihydro-4,9-dioxo-1H-naphtho[2,3-d]imidazol-3-ium chloride monohydrochloride]",Mortal case was not found
9,"COCC[n+]1c2c(n(Cc3cccnc3Cl)c1C)C(=O)c1ccccc1C2=O [Example 184, 1-[(2-chloro-3-pyridyl)methyl]-3-(2-methoxyethyl)-2-methyl-4,9-dioxo-4,9-dihydro-1H-naphtho[2,3-d]imidazol-3-ium]",Mortal case was not found
10,"COCC[n+]1c2c(n(Cc3ccnc(O)c3)c1C)C(=O)c1ccccc1C2=O [Example 185, 1-[(2-hydroxy-4-pyridyl)methyl]-3-(2-methoxyethyl)-2-methyl-4,9-dioxo-4,9-dihydro-1H-naphtho[2,3-d]imidazol-3-ium]",Mortal case was not found
11,"COCC[n+]1c2c(n(Cc3ccc(OC)nc3)c1C)C(=O)c1ccccc1C2=O [Example 186, 3-(2-methoxyethyl)-1-[(6-methoxy-3-pyridyl)methyl]-2-methyl-4,9-dioxo-4,9-dihydro-1H-naphtho[2,3-d]imidazol-3-ium]",Mortal case was not found
12,"COCC[n+]1c2c(n(Cc3ccnc(Cl)c3)c1C)C(=O)c1ccccc1C2=O [Example 192, 1-[(2-chloro-4-pyridyl)methyl]-3-(2-methoxyethyl)-2-methyl-4,9-dioxo-4,9-dihydro-1H-naphtho[2,3-d]imidazol-3-ium]",Mortal case was not found
13,"COCC[n+]1c2c(n(Cc3ccc(Cl)cc3)c1C)C(=O)c1ccccc1C2=O [Example 197, 1-(4-chlorobenzyl)-3-(2-methoxyethyl)-2-methyl-4,9-dioxo-4,9-dihydro-1H-naphtho[2,3-d]imidazol-3-ium]",Mortal case was not found
14,"Cn1c2c([n+](C)c1CCl)C(=O)c1ccccc1C2=O [KP-1, reference compound]",all of respective 2 cases died
15,"CCn1c2c([n+](CC)c1C)C(=O)c1ccccc1C2=O [KP-3, reference compound]",all of respective 2 cases died
